This assay deals with OCT MVIIA (SNX-111) binding site (site 1) (Rattus norvegicus, UniProt Q02294). Nature of the assay: biochemical.

Bridge positions count the residues as written; N and C are the ends. Square brackets hold non-standard residues; d marks the D form. Peptide text beside a SMILES is read from it. Hyp = O=C(O)[C@@H]1C[C@@H](O)CN1

The record followed here is patent publication US5795864A (priority 1995, dated 1998).

OCT MVIIA (SNX-111) binding site (site 1), sequence (Q02294 whole entry, looked up): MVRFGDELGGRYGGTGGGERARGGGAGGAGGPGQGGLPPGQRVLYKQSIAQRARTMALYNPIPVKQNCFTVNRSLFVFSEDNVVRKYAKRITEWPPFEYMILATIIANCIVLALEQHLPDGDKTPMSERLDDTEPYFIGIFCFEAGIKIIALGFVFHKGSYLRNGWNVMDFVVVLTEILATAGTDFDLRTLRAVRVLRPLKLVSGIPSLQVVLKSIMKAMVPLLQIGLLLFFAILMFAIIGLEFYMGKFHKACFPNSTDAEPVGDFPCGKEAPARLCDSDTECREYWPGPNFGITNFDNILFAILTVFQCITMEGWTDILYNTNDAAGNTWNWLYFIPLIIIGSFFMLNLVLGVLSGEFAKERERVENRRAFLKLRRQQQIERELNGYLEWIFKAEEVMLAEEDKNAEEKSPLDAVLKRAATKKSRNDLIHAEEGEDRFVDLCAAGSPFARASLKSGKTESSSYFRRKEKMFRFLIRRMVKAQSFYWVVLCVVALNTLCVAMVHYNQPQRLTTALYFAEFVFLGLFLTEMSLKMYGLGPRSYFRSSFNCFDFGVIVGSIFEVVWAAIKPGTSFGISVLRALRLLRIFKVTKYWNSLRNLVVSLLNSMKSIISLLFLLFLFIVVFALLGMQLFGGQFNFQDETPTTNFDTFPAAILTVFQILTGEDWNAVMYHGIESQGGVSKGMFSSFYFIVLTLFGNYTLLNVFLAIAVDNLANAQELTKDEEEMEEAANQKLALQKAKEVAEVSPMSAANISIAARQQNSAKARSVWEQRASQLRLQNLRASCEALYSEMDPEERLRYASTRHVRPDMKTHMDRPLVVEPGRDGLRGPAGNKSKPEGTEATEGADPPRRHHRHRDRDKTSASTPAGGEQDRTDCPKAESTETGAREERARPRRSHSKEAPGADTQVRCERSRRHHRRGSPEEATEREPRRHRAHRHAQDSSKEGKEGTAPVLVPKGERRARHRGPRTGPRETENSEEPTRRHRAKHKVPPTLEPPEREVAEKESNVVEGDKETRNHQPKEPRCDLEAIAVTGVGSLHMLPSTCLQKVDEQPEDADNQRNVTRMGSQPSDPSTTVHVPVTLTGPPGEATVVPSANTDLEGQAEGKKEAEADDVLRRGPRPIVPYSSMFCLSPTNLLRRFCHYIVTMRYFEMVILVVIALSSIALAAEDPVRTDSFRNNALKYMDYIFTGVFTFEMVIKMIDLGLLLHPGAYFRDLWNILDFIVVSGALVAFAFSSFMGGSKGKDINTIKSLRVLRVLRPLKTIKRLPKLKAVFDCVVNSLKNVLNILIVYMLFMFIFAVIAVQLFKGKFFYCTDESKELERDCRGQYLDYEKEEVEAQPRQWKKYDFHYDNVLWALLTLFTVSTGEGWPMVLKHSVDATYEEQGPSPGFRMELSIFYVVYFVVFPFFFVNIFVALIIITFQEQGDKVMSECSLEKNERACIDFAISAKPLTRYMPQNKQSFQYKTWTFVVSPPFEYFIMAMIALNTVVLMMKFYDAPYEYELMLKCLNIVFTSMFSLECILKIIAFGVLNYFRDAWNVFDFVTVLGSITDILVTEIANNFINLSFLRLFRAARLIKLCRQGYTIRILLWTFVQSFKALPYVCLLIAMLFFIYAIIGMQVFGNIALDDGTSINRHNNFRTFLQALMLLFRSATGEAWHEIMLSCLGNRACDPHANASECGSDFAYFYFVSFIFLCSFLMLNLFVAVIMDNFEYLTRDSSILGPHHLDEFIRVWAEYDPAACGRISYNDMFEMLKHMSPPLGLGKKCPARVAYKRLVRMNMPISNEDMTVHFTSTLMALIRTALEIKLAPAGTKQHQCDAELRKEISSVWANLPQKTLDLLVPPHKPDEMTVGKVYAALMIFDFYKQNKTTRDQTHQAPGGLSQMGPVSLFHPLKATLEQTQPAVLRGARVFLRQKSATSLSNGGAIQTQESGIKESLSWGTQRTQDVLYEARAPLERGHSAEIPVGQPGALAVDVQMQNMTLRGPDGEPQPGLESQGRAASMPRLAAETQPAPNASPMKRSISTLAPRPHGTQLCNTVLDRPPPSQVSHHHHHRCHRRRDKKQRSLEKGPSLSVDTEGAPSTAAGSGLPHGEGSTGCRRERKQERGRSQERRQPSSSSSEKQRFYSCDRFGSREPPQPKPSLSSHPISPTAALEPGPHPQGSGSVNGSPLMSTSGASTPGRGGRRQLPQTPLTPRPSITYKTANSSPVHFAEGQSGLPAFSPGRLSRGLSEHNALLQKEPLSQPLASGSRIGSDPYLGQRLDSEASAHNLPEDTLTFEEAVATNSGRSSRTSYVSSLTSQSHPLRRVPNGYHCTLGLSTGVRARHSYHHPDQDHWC

One may read the IC50 as the midpoint of a concentration-inhibition curve. With `CC[C@H](C)[C@@H]1NC(=O)[C@H](CO)NC(=O)[C@H]([C@@H](C)O)NC(=O)[C@H](C(C)C)NC(=O)CNC(=O)[C@@H]2CSSC[C@@H]3NC(=O)[C@H](CCCNC(=N)N)NC(=O)CNC(=O)[C@H](CSSC[C@H](N)C(=O)N[C@@H](CCCNC(=N)N)C(=O)N[C@@H](CO)C(=O)N[C@@H](CO)C(=O)NCC(=O)N[C@@H](CO)C(=O)N4C[C@H](O)C[C@H]4C(=O)N2)NC(=O)[C@H](CSSC[C@@H](C(=O)N[C@H](C(N)=O)[C@@H](C)O)NC(=O)[C@H](CCCCN)NC(=O)CNC(=O)[C@H](CCCNC(=N)N)NC(=O)[C@H](Cc2ccc(O)cc2)NC3=O)NC1=O` [SNX-157] (H-CRSSGS[Hyp]CGVTSICCGRCYRGKCT-NH2; disulfide 1-15, 8-18, 14-23), the IC50 was found to be 1460 nM.
